Data on 15 molecules can be found in article PMC12693167, “Design, Synthesis and Anticancer Activity of 6-Substituted-1-(3,4,5-trimethoxyphenyl)-1H-indole Against Tubulin Polymerisation” (Molecules, 2025).

One assay has as its system HeLa cells. As to the kind of experiment: CCK-8 antiproliferative assay, HeLa. In kind it is cell-based. The note with it: Homo sapiens, cell viability (CCK-8), 48 h. On the procedure: (§1) To evaluate the anticancer potential of the synthesized compounds, a panel of six human and murine cancer cell lines representing different tissue origins was selected, including MCF-7 (human breast adenocarcinoma), MDA-MB-231 (human triple-negative breast cancer), A549 (human non-small cell lung cancer), HeLa (human cervical cancer), A375 (human melanoma), and B16-F10 (murine melanoma) (Table 2). […] DMSO was used as the vehicle control, and all experiments were performed in triplicate to ensure reproducibility.
(§2) Human breast cancer cells (MCF-7), human lung cancer cells (A549), human cervical cancer cells (HeLa), human triple-negative breast cancer cells (MDA-MB-231), and human malignant melanoma cells (A375) were cultured in DMEM. Mouse melanoma cells (B16F10) were maintained in RPMI-1640 medium. All media were supplemented with 10% fetal bovine serum and 1% penicillin-streptomycin (Life Technologies, Carlsbad, CA, USA) and maintained at 37 °C in a humidified atmosphere with 5% CO2.
(§3) The cytotoxicity of the test compounds was evaluated against MCF-7, A549, HeLa, MDA-MB-231, A375, and B16F10 using the CCK-8 assay. Cells were seeded into 96-well plates at a density of 5000 cells/well. After removing the medium, 100 μL of medium with 0.1% DMSO containing test compounds at different concentrations was added to each well and incubated at 37 °C for another 48 h. The CCK-8 solution was added and incubated for another 1 h, and then, the absorbance was detected with a microplate reader at a wavelength of 450 nm. The IC50 values were calculated by nonlinear regression analysis using GraphPad Prism 8.0.2. All the experiments were repeated at least three times.
Background: Tetrazolium dyes change colour on reduction, which living cells bring about.

For assay [1], the target named is T1, purified porcine brain tubulin (Sus scrofa, UniProt P02554).
T1 construct: purified porcine brain tubulin; from tissue; host or cells: porcine brain
Description: Biolayer interferometry (BLI) binding to tubulin. The note with it: immobilized tubulin, 1:1 binding model, mean ± SD, triplicate. On the procedure: To detect the direct interaction between the synthesized compounds and tubulin, biolayer interferometry (BLI) experiments were performed using purified porcine brain tubulin immobilized on Super Streptavidin (SSA) biosensor [30]. […] Association and dissociation kinetics were monitored in real time, and equilibrium dissociation constants (KD) were determined by global fitting of the sensorgrams to a 1:1 binding model. All measurements were conducted in triplicate, and results are reported as mean ± SD.
BLI assays were performed on an Octet RED96 instrument (FortéBio, Pall Life Sciences, Menlo Park, CA, USA) at 25 °C in PBS buffer supplemented with 0.02% (v/v) Tween-20 as the running buffer. Biotinylated tubulin proteins (3 μg/mL) were immobilized onto Super Streptavidin (SSA) biosensors. Association and dissociation were monitored for 60 s each. […] Reference subtraction was performed using sensors incubated in running buffer without protein loading to correct for baseline drift. Data were analyzed using Octet Data Analysis software (version 9.0), and equilibrium dissociation constants (KD) were determined by fitting the curves to a 1:1 binding model. All measurements were performed in triplicate, and results are reported as mean ± SD.
BLI assays were performed on an Octet RED96 instrument (FortéBio, Pall Life Sciences) at 25 °C in PBS buffer supplemented with 0.02% (v/v) Tween-20 as the running buffer. Biotinylated tubulin proteins (3 μg/mL) were immobilized onto Super Streptavidin (SSA) biosensors. Association and dissociation were monitored for 60 s […]
Reference subtraction was performed using sensors incubated in running buffer without protein loading to correct for baseline drift. Data were analyzed using Octet Data Analysis software (version 9.0), and equilibrium dissociation constants (KD) were determined by fitting the curves to a 1:1 binding model. All measurements were performed in triplicate, and results are reported as mean ± SD.
For orientation: BLI is a label-free optical method that tracks binding on a fibre tip over time.

In another assay the test system is MCF-7 cells. As to the kind of experiment: CCK-8 antiproliferative assay, MCF-7. Format: cell-based. The conditions noted are these: Homo sapiens, MCF7; cell viability (CCK-8), 48 h. On the procedure: as §1, §2, §3
In a further assay the test system is MDA-MB-231 cells. Description: CCK-8 antiproliferative assay, MDA-MB-231. The conditions noted are these: Homo sapiens, cell viability (CCK-8), 48 h. Format: cell-based. On the procedure:
as §1, §2, §3

A further assay has as its system A549 cells. As to the kind of experiment: CCK-8 antiproliferative assay, A549. Format: cell-based. The note with it: Homo sapiens, cell viability (CCK-8), 48 h. The method, then:
as §1, §2, §3

Another assay has as its system A375 cells. Description: CCK-8 antiproliferative assay, A375. Format: cell-based. The conditions noted are these: Homo sapiens, A-375; cell viability (CCK-8), 48 h. The method, then:
as §1, §2, §3

The test system of another assay is B16-F10 cells. Description: CCK-8 antiproliferative assay, B16-F10. In kind it is cell-based, murine. The conditions noted are these: Mus musculus, cell viability (CCK-8), 48 h. The method, then:
as §1, §2, §3

Bounds are passed on as bounds.

T1 sequence (P02554 whole entry): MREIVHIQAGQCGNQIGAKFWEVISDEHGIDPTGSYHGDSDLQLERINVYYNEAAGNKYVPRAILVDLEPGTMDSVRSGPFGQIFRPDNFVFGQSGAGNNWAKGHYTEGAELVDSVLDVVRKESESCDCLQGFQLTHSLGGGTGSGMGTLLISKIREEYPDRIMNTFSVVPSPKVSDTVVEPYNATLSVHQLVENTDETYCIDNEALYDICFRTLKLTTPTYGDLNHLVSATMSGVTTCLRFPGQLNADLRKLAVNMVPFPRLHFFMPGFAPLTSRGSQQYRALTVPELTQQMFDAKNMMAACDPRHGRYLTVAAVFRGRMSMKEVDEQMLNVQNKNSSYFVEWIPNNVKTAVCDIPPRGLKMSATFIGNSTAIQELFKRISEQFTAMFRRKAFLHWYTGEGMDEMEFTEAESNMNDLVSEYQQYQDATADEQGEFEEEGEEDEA
T1 sequence (P02550 whole entry partner): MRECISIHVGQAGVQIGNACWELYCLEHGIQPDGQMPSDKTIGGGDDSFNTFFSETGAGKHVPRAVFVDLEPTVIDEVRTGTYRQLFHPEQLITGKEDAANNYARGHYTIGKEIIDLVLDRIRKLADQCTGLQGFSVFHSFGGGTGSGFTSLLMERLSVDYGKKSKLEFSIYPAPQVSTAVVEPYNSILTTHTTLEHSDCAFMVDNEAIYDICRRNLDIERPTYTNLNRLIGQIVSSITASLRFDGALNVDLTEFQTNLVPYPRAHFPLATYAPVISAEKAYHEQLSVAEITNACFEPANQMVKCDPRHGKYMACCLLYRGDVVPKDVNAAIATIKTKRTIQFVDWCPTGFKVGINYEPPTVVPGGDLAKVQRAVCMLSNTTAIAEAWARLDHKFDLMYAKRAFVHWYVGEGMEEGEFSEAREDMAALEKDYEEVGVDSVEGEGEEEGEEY

As a reminder, the IC50 is the midpoint of a concentration-inhibition curve. A high value points to a need for much substance. What is called Kd is the equilibrium constant for the complex coming apart. A lower Kd goes with a tighter complex. On to `COc1cc(-n2ccc3ccc(-c4ccccc4C(C)C)cc32)cc(OC)c1OC` [3f, 6-(2-isopropylphenyl)-1-(3,4,5-trimethoxyphenyl)-1H-indole], for which the IC50 with HeLa cells is 41.8 ± 1.11 µM; in the assay with MCF-7 cells, 17.4 ± 0.35 µM; in the assay with MDA-MB-231 cells, 21.37 ± 0.12 µM; in the assay on A549 cells, 87.4 ± 3.45 µM; in the assay with A375 cells it was 21.1 ± 1.17 µM; in the assay on B16-F10 cells it was 6.67 ± 0.29 µM. The same molecule displayed a Kd in assay [1] of 47 ± 5.62 µM.
`CCc1ccc(-c2ccc3ccn(-c4cc(OC)c(OC)c(OC)c4)c3c2)cc1` [3e, 6-(4-ethylphenyl)-1-(3,4,5-trimethoxyphenyl)-1H-indole]: the IC50 in the assay with HeLa cells, in the assay on MCF-7 cells, in the assay on MDA-MB-231 cells, with A549 cells, in the assay on A375 cells and with B16-F10 cells was above 100 µM throughout. In assay [1], binding was put at a Kd of 110 ± 14.5 µM.
In the case of `COc1cc(-n2ccc3ccc(-c4ccc(C(C)C)cc4)cc32)cc(OC)c1OC` [3k, 6-(4-isopropylphenyl)-1-(3,4,5-trimethoxyphenyl)-1H-indole], the IC50 in the assay on HeLa cells, with MCF-7 cells, with MDA-MB-231 cells, with A549 cells, in the assay with A375 cells and with B16-F10 cells was above 100 µM throughout. Also, the KD result in assay [1] is recorded as “undetectable binding”. In assay [1], the Kd is above 200 µM.
In the case of `CCc1ccccc1-c1ccc2ccn(-c3cc(OC)c(OC)c(OC)c3)c2c1` [3d, 6-(2-ethylphenyl)-1-(3,4,5-trimethoxyphenyl)-1H-indole], the IC50 in the assay with HeLa cells was 46.6 ± 3.65 µM; in the assay with MCF-7 cells it was 34.2 ± 1.62 µM; in the assay with MDA-MB-231 cells, 23.4 ± 0.44 µM; in the assay with A549 cells, 60.2 ± 4.17 µM; with A375 cells it was 24.84 ± 0.16 µM; in the assay with B16-F10 cells, 6.49 ± 0.4 µM. Besides, in assay [1], the KD result was “low micromolar range”. Besides, the Kd in assay [1] worked out at 24 ± 2.13 µM.
On to `COc1cc(-n2ccc3ccc(-c4cccc(C)c4)cc32)cc(OC)c1OC` [3c, 6-(m-tolyl)-1-(3,4,5-trimethoxyphenyl)-1H-indole], for which the IC50 in the assay with HeLa cells was 66.5 ± 6.21 µM; in the assay with MCF-7 cells, 9.15 ± 0.21 µM; in the assay with MDA-MB-231 cells it was 37.7 ± 0.89 µM; in the assay on A549 cells, 92.4 ± 8.58 µM; with A375 cells, 53.2 ± 4.06 µM; in the assay on B16-F10 cells it was 59.2 ± 5.86 µM. In addition, in assay [1], the KD entry is “low micromolar range”. The Kd in assay [1] came out at 23 ± 2.12 µM.
With `CCCCc1ccc(-c2ccc3ccn(-c4cc(OC)c(OC)c(OC)c4)c3c2)cc1` [3i, 6-(4-butylphenyl)-1-(3,4,5-trimethoxyphenyl)-1H-indole], the IC50 in the assay on HeLa cells, with MCF-7 cells, with MDA-MB-231 cells, with A549 cells, in the assay with A375 cells and with B16-F10 cells was above 100 µM in each case. For the same molecule, in assay [1], the KD result is listed as “undetectable binding”. The molecule further displayed a Kd in assay [1] above 200 µM.
Consider `COc1cc(-n2ccc3ccc(-c4cccc(OC(F)(F)F)c4)cc32)cc(OC)c1OC` [3h, 6-(3-(trifluoromethoxy)phenyl)-1-(3,4,5-trimethoxyphenyl)-1H-indole], for which the IC50 with HeLa cells, in the assay with MCF-7 cells, in the assay with MDA-MB-231 cells, in the assay on A549 cells, in the assay with A375 cells and with B16-F10 cells was above 100 µM in each case. For the same molecule, in assay [1], the KD result is “undetectable binding”. The same molecule gave a Kd in assay [1] above 200 µM.
As for `COc1cc(-n2ccc3ccc(-c4ccc(SC)cc4)cc32)cc(OC)c1OC` [3j, 6-(4-(methylthio)phenyl)-1-(3,4,5-trimethoxyphenyl)-1H-indole], the IC50 in the assay with HeLa cells, in the assay with MCF-7 cells, in the assay with MDA-MB-231 cells, in the assay with A549 cells, with A375 cells and with B16-F10 cells was above 100 µM each time. Besides, the KD entry in assay [1] is “undetectable binding”. Besides, the Kd in assay [1] was above 200 µM.
In the case of `COc1cc(-n2ccc3ccc(-c4cccc(C#N)c4)cc32)cc(OC)c1OC` [3b, 3-(1-(3,4,5-trimethoxyphenyl)-1H-indol-6-yl)benzonitrile], the IC50 came to 38.5 ± 2.25 µM in the assay with HeLa cells; 3.33 ± 0.28 µM in the assay with MCF-7 cells; 42.9 ± 3.13 µM in the assay with MDA-MB-231 cells; 41.2 ± 3.42 µM with A549 cells; 27.5 ± 2.5 µM with A375 cells; 3.78 ± 0.14 µM in the assay on B16-F10 cells. In addition, in assay [1], the KD result is listed as “low micromolar range”. The Kd in assay [1] came out at 29 ± 4.1 µM.
On to `COc1cc(-n2ccc3ccc(-c4ccc(Oc5ccccc5)cc4)cc32)cc(OC)c1OC` [3o, 6-(4-Phenoxyphenyl)-1-(3,4,5-trimethoxyphenyl)-1H-indole], for which the IC50 in the assay on HeLa cells, in the assay on MCF-7 cells, in the assay on MDA-MB-231 cells, in the assay on A549 cells, in the assay with A375 cells and with B16-F10 cells was above 100 µM each time. The same molecule came in with a Kd in assay [1] of 31 ± 3.41 µM.
For the molecule `COc1cc(-n2ccc3ccc(-c4ccc(C#N)cc4F)cc32)cc(OC)c1OC` [3n, 3-fluoro-4-(1-(3,4,5-trimethoxyphenyl)-1H-indol-6-yl)benzonitrile], the IC50 in the assay on HeLa cells turned out to be 65 ± 3.2 µM; in the assay on MCF-7 cells it was 14.2 ± 0.51 µM; with MDA-MB-231 cells it was 41.4 ± 1.21 µM; in the assay with A549 cells, 48 ± 2.56 µM; with A375 cells, 16.1 ± 0.38 µM; in the assay on B16-F10 cells, 68.9 ± 3.17 µM. This molecule also showed a dissociation constant (Kd) in assay [1] of 220 ± 30.8 µM.
With `COc1cc(-n2ccc3ccc(-c4nc5ccccc5s4)cc32)cc(OC)c1OC` [3p, 2-(1-(3,4,5-trimethoxyphenyl)-1H-indol-6-yl)benzo[d]thiazole], the IC50 with HeLa cells, in the assay on MCF-7 cells, in the assay on MDA-MB-231 cells, in the assay on A549 cells, in the assay on A375 cells and in the assay with B16-F10 cells was above 100 µM throughout. For the same molecule, the KD entry in assay [1] is reported as “undetectable binding”. Besides, in assay [1], the Kd was above 200 µM.
With `COc1cc(-n2ccc3ccc(-c4ccccc4C#N)cc32)cc(OC)c1OC` [3l, 2-(1-(3,4,5-trimethoxyphenyl)-1H-indol-6-yl)benzonitrile], the IC50 with HeLa cells, with MCF-7 cells, with MDA-MB-231 cells, in the assay with A549 cells, in the assay on A375 cells and in the assay on B16-F10 cells was above 100 µM each time. Further, in assay [1], the KD entry is listed as “low micromolar range”. The same molecule showed a Kd in assay [1] of 26 ± 3.38 µM.
On to `COc1cc(-n2ccc3ccc(-c4ccccc4)cc32)cc(OC)c1OC` [3a, 6-phenyl-1-(3,4,5-trimethoxyphenyl)-1H-indole], for which the IC50 in the assay with HeLa cells is above 100 µM; with MCF-7 cells it was 10.1 ± 0.68 µM; in the assay with MDA-MB-231 cells, 78.92 ± 0.57 µM; in the assay on A549 cells, 36.6 ± 1.78 µM; in the assay on A375 cells, 1.16 ± 0.12 µM; with B16-F10 cells it was 45.4 ± 1.11 µM. The affinity in assay [1], expressed as Kd, was 39 ± 2.6 µM.
For the molecule `COc1cc(-n2ccc3ccc(-c4ccc(C#N)cc4)cc32)cc(OC)c1OC` [3m, 4-(1-(3,4,5-trimethoxyphenyl)-1H-indol-6-yl)benzonitrile], the IC50 with HeLa cells, in the assay with MCF-7 cells, in the assay with MDA-MB-231 cells, in the assay with A549 cells, with A375 cells and with B16-F10 cells was above 100 µM each time. The KD entry in assay [1] is listed as “undetectable binding”. The molecule also registered a Kd in assay [1] above 200 µM.
